Test results published in paper PMC2099433, “The binding site for neohesperidin dihydrochalcone at the human sweet taste receptor” (BMC Structural Biology, 2007).
Numbering of substitutions follows the chain as printed. Where a SMILES comes first, the peptide text is derived from it.

Legend:
[1] = target: T1, hTAS1R2 + hTAS1R3 T724L^5.37 (Homo sapiens, UniProt Q7RTX0+Q8TE23, T724L); test: Calcium response (FLIPR), hTAS1R3 mutant coexpressed with hTAS1R2; format: cell-based; details: variant T724L^5.37; for Emax: read-out: maximal signal (% of wt)
T1 construct: expressed in transfected cells; host or cells: HEK293T cells stably expressing G16Gust44
T1 sequence (Q7RTX0 21-852 T724L): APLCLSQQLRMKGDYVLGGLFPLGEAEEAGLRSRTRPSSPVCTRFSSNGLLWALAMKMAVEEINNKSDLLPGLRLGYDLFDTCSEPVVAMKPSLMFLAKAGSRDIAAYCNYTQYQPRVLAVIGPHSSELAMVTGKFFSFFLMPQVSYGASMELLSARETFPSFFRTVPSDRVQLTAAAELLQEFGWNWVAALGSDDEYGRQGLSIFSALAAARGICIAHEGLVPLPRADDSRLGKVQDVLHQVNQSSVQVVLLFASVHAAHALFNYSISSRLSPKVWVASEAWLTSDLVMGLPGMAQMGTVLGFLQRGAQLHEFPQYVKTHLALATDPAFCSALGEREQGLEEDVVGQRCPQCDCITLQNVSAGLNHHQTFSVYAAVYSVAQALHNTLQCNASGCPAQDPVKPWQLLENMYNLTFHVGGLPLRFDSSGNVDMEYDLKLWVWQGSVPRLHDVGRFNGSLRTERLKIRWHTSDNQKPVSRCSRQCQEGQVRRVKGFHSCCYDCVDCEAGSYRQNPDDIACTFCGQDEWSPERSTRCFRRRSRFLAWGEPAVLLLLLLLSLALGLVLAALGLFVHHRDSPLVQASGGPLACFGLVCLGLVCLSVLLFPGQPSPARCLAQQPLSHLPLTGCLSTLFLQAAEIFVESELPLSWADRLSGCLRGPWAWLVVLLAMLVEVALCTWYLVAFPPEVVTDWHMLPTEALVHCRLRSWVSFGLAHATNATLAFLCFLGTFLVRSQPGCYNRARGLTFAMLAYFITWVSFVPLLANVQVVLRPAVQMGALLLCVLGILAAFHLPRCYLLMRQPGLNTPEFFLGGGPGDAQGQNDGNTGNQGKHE
T1 sequence (Q8TE23 20-839): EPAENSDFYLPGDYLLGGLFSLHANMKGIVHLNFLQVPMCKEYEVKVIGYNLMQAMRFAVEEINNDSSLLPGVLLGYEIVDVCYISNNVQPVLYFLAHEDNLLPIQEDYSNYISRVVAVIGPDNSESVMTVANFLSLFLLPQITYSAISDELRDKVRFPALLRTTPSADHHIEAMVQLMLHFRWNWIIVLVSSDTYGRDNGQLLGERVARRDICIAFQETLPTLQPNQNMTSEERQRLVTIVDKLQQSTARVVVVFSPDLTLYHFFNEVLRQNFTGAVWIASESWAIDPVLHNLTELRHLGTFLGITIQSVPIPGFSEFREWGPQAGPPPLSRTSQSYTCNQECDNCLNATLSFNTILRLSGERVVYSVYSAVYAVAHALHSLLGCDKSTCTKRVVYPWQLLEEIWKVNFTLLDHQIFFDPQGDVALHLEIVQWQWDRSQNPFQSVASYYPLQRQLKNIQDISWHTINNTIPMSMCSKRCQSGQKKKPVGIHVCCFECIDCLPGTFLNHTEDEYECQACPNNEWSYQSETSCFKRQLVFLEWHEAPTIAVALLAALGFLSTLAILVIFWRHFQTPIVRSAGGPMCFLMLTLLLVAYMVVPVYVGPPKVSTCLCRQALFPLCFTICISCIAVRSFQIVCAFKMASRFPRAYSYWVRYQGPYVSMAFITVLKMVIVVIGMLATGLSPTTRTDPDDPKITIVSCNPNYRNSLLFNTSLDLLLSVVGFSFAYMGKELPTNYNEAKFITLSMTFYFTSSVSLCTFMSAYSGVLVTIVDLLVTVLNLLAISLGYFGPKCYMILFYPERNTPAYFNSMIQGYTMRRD
In short: (§1)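 Read-out: FLIPR calcium signal as ΔF/F = (F-F0)/F0, corrected for mock-transfected cells. Cells were HEK293T stably carrying G16Gust44, transiently transfected with HSV-tagged receptor cDNAs and dye-loaded with Fluo4-AM 24 h post transfection.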

[2] = target: T2, hTAS1R2 + hTAS1R3 L782A^6.55 (Homo sapiens, UniProt Q7RTX0+Q8TE23, L782A); test: as above; format: cell-based; details: variant L782A^6.55; for EC50: (>) EC50 not calculable because saturation is not reached; for Emax: read-out: maximal signal (% of wt)
T2 construct: expressed in transfected cells; host or cells: HEK293T cells stably expressing G16Gust44
T2 sequence (Q8TE23 20-839): T1 sequence (Q8TE23 20-839)
T2 sequence (Q7RTX0 21-852 L782A): T1 sequence (Q7RTX0 21-852 T724L) with L704T, L762A
In short: as §1

Row | EC50 [1] [mM] | Emax [1] [%] | EC50 [2] [mM] | Emax [2] [%] | Structure (SMILES)
1 | 1.5 ± 0.2 | 69 ± 2 | 1.7 ± 0.3 | 95 ± 90 | COC(=O)[C@H](Cc1ccccc1)NC(=O)[C@@H](N)CC(=O)O [aspartame] (HELM PEPTIDE1{D.F.[CO[*:1]]}$$$$V2.0)
2 | 0.5 ± 0.3 | 58 ± 60 | > 3 | 50 ± 11 | COc1ccc(CCC(=O)c2c(O)cc(O[C@@H]3O[C@H](CO)[C@@H](O)[C@H](O)[C@H]3O[C@@H]3O[C@@H](C)[C@H](O)[C@@H](O)[C@H]3O)cc2O)cc1O [NHDC, neohesperidin dihydrochalcone]
